The values that follow come from PubChem BioAssay (NCI).

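The compound was tested at five concentrations on cells cultured in 96-well plates, with a 48-hour exposure period. The concentration for full growth arrest is given as TGI.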 Where only a bound is given, the exact number is not on record here.

Test systems include A498 renal; DU-145 prostate; HCT-15 colon; HOP-62 NSCLC; NCI/ADR-RES ovarian; SK-MEL-28 melanoma; SK-OV-3 ovarian; UACC-62 melanoma; OVCAR-8 ovarian; SK-MEL-2 melanoma.
What all share (assay): DTP human tumour cell line panel, 48 h

For orientation: TGI means the concentration giving total growth inhibition.

`Fc1cccc(F)c1C1SCC2=Nc3ccccc3CN21` (configuration not stated): the TGI in the test on A498 renal is above 100 µM; with DU-145 prostate it was above 100 µM; in the test on HCT-15 colon, above 100 µM; in the test with HOP-62 NSCLC, 84.4 µM; in the test with NCI/ADR-RES ovarian it was 79.5 µM; with SK-MEL-28 melanoma, above 100 µM. The TGI in the test on SK-OV-3 ovarian and with UACC-62 melanoma was above 100 µM each time.
`c1ccc2[nH]c(-c3nc4ccccc4o3)nc2c1`: the TGI in the test with A498 renal, in the test on HCT-15 colon, with HOP-62 NSCLC, in the test on OVCAR-8 ovarian, in the test with SK-MEL-2 melanoma and in the test with SK-MEL-28 melanoma was above 100 µM each time. Also, the TGI in the test with SK-OV-3 ovarian is above 100 µM.
On to `COC(=O)/C(=C/c1ccc(OC)cc1)C(C(=O)O)=C(C)C`, for which the TGI in the test with A498 renal, in the test with HCT-15 colon, in the test with HOP-62 NSCLC, in the test on OVCAR-8 ovarian, in the test with SK-MEL-2 melanoma and in the test with SK-MEL-28 melanoma was above 100 µM throughout. In addition, the TGI in the test with SK-OV-3 ovarian and with UACC-62 melanoma was above 100 µM in each case.
On to `CCOC(=O)C1NCCc2c1[nH]c1ccccc21` (configuration not stated), for which the TGI in the test on DU-145 prostate, in the test with HCT-15 colon, in the test with HOP-62 NSCLC, with OVCAR-8 ovarian, in the test with SK-MEL-28 melanoma and with SK-OV-3 ovarian was above 10 µM in each case. The TGI in the test with UACC-62 melanoma was above 10 µM.
Consider `Oc1c(Cl)c2nccnc2c2ccccc12`, for which the TGI in the test on A498 renal, in the test with HCT-15 colon, with OVCAR-8 ovarian, with SK-MEL-2 melanoma, in the test on SK-MEL-28 melanoma and with SK-OV-3 ovarian was above 100 µM in each case. The TGI with UACC-62 melanoma is above 100 µM.
On to `COc1ccc(-c2nc3ncccn3c2-c2ccc(S(C)=O)cc2)cc1` (configuration not stated), for which the TGI in the test with DU-145 prostate, in the test with HCT-15 colon, with HOP-62 NSCLC, in the test with NCI/ADR-RES ovarian, in the test with OVCAR-8 ovarian and with SK-MEL-2 melanoma was above 100 µM each time. Further, the total growth inhibition concentration (TGI) with SK-MEL-28 melanoma, in the test on SK-OV-3 ovarian and in the test with UACC-62 melanoma was above 100 µM throughout.
As to `C=CCN1C(=O)CS/C1=N\NC(=O)c1c(C)nc2sccn12`, the TGI in the test with HCT-15 colon, with HOP-62 NSCLC, in the test on OVCAR-8 ovarian, in the test with SK-MEL-2 melanoma, in the test with SK-MEL-28 melanoma and with SK-OV-3 ovarian was above 100 µM each time. The molecule also registered a concentration for total growth inhibition (TGI) in the test on UACC-62 melanoma above 100 µM.
For `O=[N+]([O-])/C(C(Cl)=C(Cl)Cl)=C1\Nc2ccccc2O1`, the TGI was above 100 µM in the test on A498 renal; above 100 µM in the test with DU-145 prostate; above 100 µM in the test with HCT-15 colon; above 100 µM in the test on HOP-62 NSCLC; 63.9 µM with OVCAR-8 ovarian; above 100 µM in the test with SK-MEL-2 melanoma. The concentration for total growth inhibition (TGI) in the test on SK-MEL-28 melanoma, in the test on SK-OV-3 ovarian and with UACC-62 melanoma was above 100 µM each time.
On to `C=C/C(C)=C/[C@H](C)C(=O)C[C@H](O)CC1CC(=O)NC(=O)C1`, for which the TGI is above 100 µM in the test on A498 renal; above 100 µM with HCT-15 colon; above 91.1 µM in the test on HOP-62 NSCLC; above 100 µM in the test on NCI/ADR-RES ovarian; above 100 µM with OVCAR-8 ovarian; above 100 µM in the test on SK-MEL-2 melanoma. Moreover, the TGI with SK-MEL-28 melanoma was above 91.8 µM; in the test on SK-OV-3 ovarian, above 100 µM; in the test with UACC-62 melanoma, above 100 µM.
For `O=C1Nc2ccccc2C(=O)OC(Cc2ccccc2)=Nc2ccccc21`, the TGI in the test with DU-145 prostate, in the test with HCT-15 colon, in the test on HOP-62 NSCLC, in the test on NCI/ADR-RES ovarian, in the test with OVCAR-8 ovarian and in the test on SK-MEL-2 melanoma was above 100 µM throughout. Moreover, the TGI in the test with SK-MEL-28 melanoma, with SK-OV-3 ovarian and with UACC-62 melanoma was above 100 µM in each case.
Turning to `CC(C)(C)C1CC[C@H]2c3c([nH]c4ccc(Br)cc34)[C@H]3C(=O)N(c4ccccc4)C(=O)[C@H]3[C@H]2C1` (some centres not stated), the TGI with HOP-62 NSCLC was above 100 µM; in the test on OVCAR-8 ovarian, 11.8 µM; in the test with SK-MEL-2 melanoma, above 100 µM; in the test with SK-MEL-28 melanoma, above 100 µM; with SK-OV-3 ovarian, 40.8 µM; in the test on UACC-62 melanoma, 87.4 µM.
For `Nc1c(Br)cc(-c2cc(Br)c(N)c(Br)c2)cc1Br`, the TGI in the test with DU-145 prostate, in the test with HOP-62 NSCLC, in the test on NCI/ADR-RES ovarian, in the test on OVCAR-8 ovarian, with SK-MEL-28 melanoma and in the test on SK-OV-3 ovarian was above 100 µM throughout. In the test with UACC-62 melanoma, the TGI is above 100 µM.
In the case of `COC(=O)C(=O)C(C(=O)C(=O)Nc1ccccc1C(=O)OC)c1nc2ccc(C(=O)c3ccccc3)cc2[nH]c1=O` (configuration not stated), the TGI in the test on A498 renal, in the test with HCT-15 colon, with HOP-62 NSCLC, in the test on NCI/ADR-RES ovarian, in the test with OVCAR-8 ovarian and with SK-MEL-2 melanoma was above 100 µM each time. Further, the TGI in the test on SK-MEL-28 melanoma, in the test with SK-OV-3 ovarian and with UACC-62 melanoma was above 100 µM in each case.
In the case of `Cc1ncc([N+](=O)[O-])n1CCN(C)CCCCn1ccnc1[N+](=O)[O-]`, the TGI in the test with A498 renal, with DU-145 prostate, with HCT-15 colon, in the test with HOP-62 NSCLC, with OVCAR-8 ovarian and in the test with SK-MEL-2 melanoma was above 100 µM in each case. The TGI with SK-MEL-28 melanoma, in the test with SK-OV-3 ovarian and in the test with UACC-62 melanoma was above 100 µM each time.
Turning to `CN(C)[C@@H]1C(=O)C(C(N)=O)=C(O)[C@@]2(O)C(=O)C3=C(O)c4c(O)cccc4C[C@H]3C[C@@H]12`, the TGI was found to be 4.56 µM in the test on A498 renal; 22 µM in the test with HCT-15 colon; 4.21 µM in the test with HOP-62 NSCLC; 9.52 µM in the test on OVCAR-8 ovarian; 3.31 µM in the test with SK-MEL-2 melanoma; 3.19 µM in the test on SK-MEL-28 melanoma. Also, the TGI came to 3.96 µM in the test on SK-OV-3 ovarian and 3.14 µM in the test with UACC-62 melanoma.
Take `OCC(O)COc1ccc(Br)cc1` (configuration not stated): the concentration for total growth inhibition (TGI) in the test with A498 renal, with HCT-15 colon, in the test with HOP-62 NSCLC, with OVCAR-8 ovarian, in the test with SK-MEL-2 melanoma and with SK-MEL-28 melanoma was above 100 µM in each case. The TGI in the test with SK-OV-3 ovarian and in the test on UACC-62 melanoma was above 100 µM in each case.
